One test addresses mutant LNCaP AR (Homo sapiens, UniProt P10275, T878A). As to conditions: LNCaP cells, increasing concentrations of R1881 (10^−12 to 10^−6 M).
The next test has as its target endogenous AR (Homo sapiens, UniProt P10275).
A further test deals with HPE cells. The test is described as follows: 2D difference gel electrophoresis (DIGE) of hormone-treated HPE cells. It counts as cell-based, human. The note with it: 10^−8 M DHT or 10^−5 M flutamide vs (−) hormone. The text has this:
FIGS. 9A-B. Identification of androgen- and flutamide-regulated proteins by 2D difference gel electrophoresis. […] Whole cell proteins were extracted, labeled with the dyes Cy2 (ex 480, em 530), Cy3 (ex 540, em 590), and Cy5 (ex 620, em 680) respectively. The labeled proteins were mixed together and subjected to a pH gradient of pH 4 to pH 7 in the first dimension and separated by PAGE in the second dimension. […] The proteins were excised, subjected to in-gel tryptic digestion and analyzed by MS. The tryptic peptides were identified by searching the protein data bases such as the NCBInr and SWISS- PROT databases. EST databases were also searched with fragmentation data from tandem mass spectrometry when necessary.
Identification of antiandrogen-regulated genes. […] In this study, 8 proteins were identified by tryptic mapping and the sequences verified by partial amino acid sequencing of individual tryptic peptides (FIG. 9B). […] Of particular interest were calreticulin, DJ-1 and non-selenium glutathione peroxidase. Calreticulin binds to the AR DNA binding domain to block AR-activated transcription. Therefore, down-regulation of calreticulin expression would typically facilitate AR binding to the AR binding site to transactivate gene expression (Dedhar et al., 1994). Calreticulin also interacts with integrins during cell attachment and spreading (Coppolino and Dedhar, 1999) and a loss or decrease in calreticulin could potentially increase cell motility and increase HPE cell metastatic potential. The RNA binding protein regulatory subunit DJ-1 has oncogenic potential, transforming NIH3T3 cells in cooperation with ras (Nagakubo et al., 1997). DJ-1 also positively regulates AR-activated transcription by binding PIASx alpha and making it unavailable for the AR:PIASx alpha complex which functions to inhibit AR activation (Takahasi et al., 2001). Non-selenium glutathione peroxidase gene was initially identified as a KGF-regulated gene (Munz et al., 1997) and it is highly expressed in the hyperproliferative epithelium at the wound edge.

endogenous AR, sequence (P10275 whole entry): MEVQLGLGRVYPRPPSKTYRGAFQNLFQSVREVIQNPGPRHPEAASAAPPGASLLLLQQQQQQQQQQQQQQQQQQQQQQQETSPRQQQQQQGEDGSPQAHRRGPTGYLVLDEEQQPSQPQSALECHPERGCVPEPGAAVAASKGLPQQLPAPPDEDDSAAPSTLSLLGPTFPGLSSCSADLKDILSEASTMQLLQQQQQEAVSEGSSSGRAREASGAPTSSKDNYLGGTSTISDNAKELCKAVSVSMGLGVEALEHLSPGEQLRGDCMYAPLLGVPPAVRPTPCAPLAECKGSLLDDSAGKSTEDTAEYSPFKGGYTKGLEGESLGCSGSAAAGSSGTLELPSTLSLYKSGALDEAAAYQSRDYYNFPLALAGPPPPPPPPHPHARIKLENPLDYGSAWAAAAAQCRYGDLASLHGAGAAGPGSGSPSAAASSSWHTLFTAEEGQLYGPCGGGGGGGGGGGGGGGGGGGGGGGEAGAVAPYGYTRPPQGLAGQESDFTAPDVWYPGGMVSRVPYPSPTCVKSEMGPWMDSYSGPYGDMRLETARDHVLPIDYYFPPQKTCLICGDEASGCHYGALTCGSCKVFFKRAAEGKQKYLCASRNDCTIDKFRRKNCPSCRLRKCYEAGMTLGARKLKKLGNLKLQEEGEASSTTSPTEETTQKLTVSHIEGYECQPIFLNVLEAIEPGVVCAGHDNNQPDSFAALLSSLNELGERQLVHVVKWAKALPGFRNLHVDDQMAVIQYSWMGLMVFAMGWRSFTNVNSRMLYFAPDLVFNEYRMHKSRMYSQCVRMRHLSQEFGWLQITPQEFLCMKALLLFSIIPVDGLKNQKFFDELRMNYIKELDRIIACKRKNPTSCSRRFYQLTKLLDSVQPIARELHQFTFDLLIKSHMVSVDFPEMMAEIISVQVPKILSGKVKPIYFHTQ
mutant LNCaP AR, sequence (P10275 whole entry T878A): as the sequence (P10275 whole entry) above, with T878A counted along it

`C[C@]1(O)CC[C@H]2[C@@H]3CCC4=CC(=O)CCC4=C3C=C[C@@]21C` [R1881]: the “concentration at which near maximal CAT activity was observed” value on mutant LNCaP AR is given as 10^−8 M. Further, on endogenous AR, the “ARR2PB-activated CAT gene expression on addition of androgen” value is reported as “did not increase these levels any further” and the “CAT gene expression on addition of androgen” value is “did not increase CAT gene expression any further”.
With `C[C@]12CCC(=O)C[C@@H]1CC[C@@H]1[C@@H]2CC[C@]2(C)[C@@H](O)CC[C@@H]12` [DHT], in the test with HPE cells, the Calreticulin expression result is on record as “increased”, the expression of actin entry is listed as “down-regulated”, the “expression of annexin V” value was “down-regulated” and the “expression of glutathione S-transferase” value is listed as “down-regulated”. Further, the expression of vimentin entry with HPE cells is given as “down-regulated”.

These data come from patent US20050112706A1, “Diagnostic and prognostic methods for prostate cancers” (priority 2002, published 2005).
